According to ChEMBL document CHEMBL3616373, “Identification of N-sulfonyl-tetrahydroquinolines as RORc inverse agonists” (Bioorg Med Chem Lett, 2015):
pEC50: −log10 of the molar value.

Experiments:
[1] = target: T1, Nuclear receptor ROR-gamma (Homo sapiens) (UniProt P51449); assay: Inverse agonist activity at N-terminal 6xHis-tagged human RORc ligand binding domain (241 to 486) expressed in bacterial expression system assessed as inhibition of SRC1 co-activator peptide recruitment after 3 hrs by TR-FRET analysis relative to apo-RORc ligand binding domain
T1 sequence (whole entry): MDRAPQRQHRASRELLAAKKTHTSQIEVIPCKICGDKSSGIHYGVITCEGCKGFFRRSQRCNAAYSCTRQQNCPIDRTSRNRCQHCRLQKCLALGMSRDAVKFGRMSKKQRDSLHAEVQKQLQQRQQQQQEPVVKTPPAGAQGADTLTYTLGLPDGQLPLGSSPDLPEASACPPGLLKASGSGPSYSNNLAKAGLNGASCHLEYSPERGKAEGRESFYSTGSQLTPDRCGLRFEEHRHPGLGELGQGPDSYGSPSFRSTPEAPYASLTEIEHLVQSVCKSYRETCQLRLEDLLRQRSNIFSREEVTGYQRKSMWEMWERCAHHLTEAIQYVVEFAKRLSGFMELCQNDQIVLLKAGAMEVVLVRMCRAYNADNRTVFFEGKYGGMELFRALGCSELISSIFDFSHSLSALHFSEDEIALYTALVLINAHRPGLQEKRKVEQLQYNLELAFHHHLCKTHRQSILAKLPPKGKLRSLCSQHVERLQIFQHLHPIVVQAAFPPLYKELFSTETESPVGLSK

[2] = target: T2, Oxysterols receptor LXR-beta (Homo sapiens, UniProt P55055); assay: Antagonist activity at GAL4-fused human LXRbeta expressed in HEK293 cells assessed as inhibition of T0901317-stimulated transcriptional activity after 20 hrs by dual-glo luciferase reporter gene assay; format: cell-based
T2 sequence (P55055 whole entry): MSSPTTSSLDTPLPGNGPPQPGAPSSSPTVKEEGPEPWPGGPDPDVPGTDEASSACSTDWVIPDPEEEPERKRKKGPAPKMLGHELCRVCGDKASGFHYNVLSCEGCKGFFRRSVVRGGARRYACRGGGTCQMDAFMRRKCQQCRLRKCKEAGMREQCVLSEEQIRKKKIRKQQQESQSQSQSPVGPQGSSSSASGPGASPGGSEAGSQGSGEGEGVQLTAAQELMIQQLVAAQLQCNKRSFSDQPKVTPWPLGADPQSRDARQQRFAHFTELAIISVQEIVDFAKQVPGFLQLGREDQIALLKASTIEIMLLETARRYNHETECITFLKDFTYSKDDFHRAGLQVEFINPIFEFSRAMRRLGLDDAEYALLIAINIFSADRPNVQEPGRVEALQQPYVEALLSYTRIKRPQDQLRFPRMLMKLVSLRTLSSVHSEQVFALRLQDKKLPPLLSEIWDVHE

Bile acid receptor = target: T3, Bile acid receptor (Homo sapiens, UniProt Q96RI1); assay: Antagonist activity at GAL4-fused human FXR expressed in HEK293 cells assessed as inhibition of T0901317-stimulated transcriptional activity after 20 hrs by dual-glo luciferase reporter gene assay; format: cell-based
T3 sequence (Q96RI1 whole entry): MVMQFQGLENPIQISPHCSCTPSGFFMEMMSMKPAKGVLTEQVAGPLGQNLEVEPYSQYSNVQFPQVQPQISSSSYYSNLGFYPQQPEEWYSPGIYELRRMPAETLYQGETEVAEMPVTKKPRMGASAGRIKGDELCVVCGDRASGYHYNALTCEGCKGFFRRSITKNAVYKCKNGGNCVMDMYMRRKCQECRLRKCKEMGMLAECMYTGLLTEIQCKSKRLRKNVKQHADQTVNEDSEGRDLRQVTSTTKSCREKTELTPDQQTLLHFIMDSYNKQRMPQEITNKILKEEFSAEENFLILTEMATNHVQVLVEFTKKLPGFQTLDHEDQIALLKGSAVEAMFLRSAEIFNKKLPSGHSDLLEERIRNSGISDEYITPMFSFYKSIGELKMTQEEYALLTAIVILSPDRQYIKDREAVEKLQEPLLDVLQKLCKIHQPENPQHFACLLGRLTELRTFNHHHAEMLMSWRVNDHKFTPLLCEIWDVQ

[3] = target: T4, Nuclear receptor subfamily 1 group I member 2 (Homo sapiens, UniProt O75469); assay: Antagonist activity at GAL4-fused human PXR expressed in HEK293 cells assessed as inhibition of T0901317-stimulated transcriptional activity after 20 hrs by dual-glo luciferase reporter gene assay; format: cell-based
T4 sequence (O75469 whole entry): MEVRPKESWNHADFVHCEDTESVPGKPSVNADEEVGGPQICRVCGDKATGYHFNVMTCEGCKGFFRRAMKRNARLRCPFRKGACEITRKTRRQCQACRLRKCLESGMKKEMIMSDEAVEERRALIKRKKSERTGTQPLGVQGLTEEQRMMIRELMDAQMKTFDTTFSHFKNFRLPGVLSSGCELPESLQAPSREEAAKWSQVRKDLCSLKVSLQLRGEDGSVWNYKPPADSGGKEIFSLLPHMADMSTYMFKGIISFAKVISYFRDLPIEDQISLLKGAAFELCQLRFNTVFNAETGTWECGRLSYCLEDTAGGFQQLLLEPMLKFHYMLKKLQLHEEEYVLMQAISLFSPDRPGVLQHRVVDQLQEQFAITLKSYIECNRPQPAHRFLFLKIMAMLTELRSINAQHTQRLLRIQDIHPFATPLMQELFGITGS

[4] = Plasma protein binding in human at 5 uM after 4 hrs by equilibrium dialysis method; format: ADME, cell-free; details: read-out: PPB
PBMC [5] = assay: Inhibition of IL-17 production in human PBMC after 48 hrs by Sandwich ELISA; format: functional, cell-based; details: for pEC50: Homo sapiens, PBMC, 48 h
PBMC [6] = assay: Inhibition of IFNgamma production in human PBMC after 48 hrs by Sandwich ELISA; format: functional, cell-based
PBMC [7] = assay: Cytotoxicity against human PBMC assessed as effect on cell physiology after 48 hrs by CellTiter-Glo assay; format: cell-based
HEK293 [8] = assay: Selectivity ratio of EC50 for GAL4-fused human RORb expressed in HEK293 cells to EC50 for GAL4-fused human RORc expressed in HEK293 cells; format: cell-based
HEK293 [9] = assay: Selectivity ratio of EC50 for GAL4-fused human LXRalpha expressed in HEK293 cells to EC50 for GAL4-fused human RORc expressed in HEK293 cells; format: cell-based
HEK293 [10] = assay: Selectivity ratio of EC50 for GAL4-fused human LXRbeta expressed in HEK293 cells to EC50 for GAL4-fused human RORc expressed in HEK293 cells; format: cell-based
HEK293 [11] = assay: Selectivity ratio of EC50 for GAL4-fused human FXR expressed in HEK293 cells to EC50 for GAL4-fused human RORc expressed in HEK293 cells; format: cell-based
[12] = target: Nuclear receptor ROR-gamma; assay: Inverse agonist activity at GAL4-fused human RORc expressed in HEK293 cells assessed as suppression of basal transcriptional activity after 20 hrs by dual-glo luciferase reporter gene assay
[13] = target: Nuclear receptor ROR-alpha (→); assay: Inverse agonist activity at GAL4-fused human RORa expressed in HEK293 cells assessed as suppression of basal transcriptional activity after 20 hrs by dual-glo luciferase reporter gene assay

Row | Efficacy [1] | pEC50 [2] | pEC50 (Bile acid receptor) | pEC50 [3] | fraction unbound at 4 h, 5 µM [4] | pEC50 [12] | pEC50 [13] | Compound | %max (PBMC [5]) | pEC50 (PBMC [5]) | pEC50 (PBMC [6]) | pEC50 (PBMC [7]) | Ratio EC50 (HEK293 [8]) | Ratio EC50 (HEK293 [9]) | Ratio EC50 (HEK293 [10]) | Ratio EC50 (HEK293 [11])
1 | -89% | 5.59 | 5.28 | 6.09 | < 0.01 |  |  | O=C(Nc1ccc2c(c1)N(S(=O)(=O)c1ccc(F)cc1)CCC2)c1c(F)cccc1Cl | 63% | 5.68 | < 4.70 | < 4.70 |  |  |  | 
2 | -89% | 5.42 | 5.23 | 6.03 | < 0.01 |  |  | O=C(Nc1ccc2c(c1)N(S(=O)(=O)c1ccc(F)cc1)CCC2)c1ccccc1Cl |  |  |  |  |  |  |  | 
3 | -99% | 5.49 | 5.12 | 5.96 | < 0.01 |  |  | O=C(Nc1ccc2c(c1)N(S(=O)(=O)c1ccc(F)cc1)CCC2)c1c(F)cccc1F | 78% | 5.85 | < 4.70 | < 4.70 |  |  |  | 
4 | -99% | 5.24 | 5.38 | 5.32 | < 0.01 | 6.55 | 4.92 | O=C(Nc1ccc2c(c1)N(S(=O)(=O)c1ccc(F)cc1)CC2)c1c(F)cccc1F |  |  |  |  | 28 | 15 | 15 | 15
